# Laboratory results as given in ChEMBL document CHEMBL5696442, “Discovery of type II inhibitors of TGFβ-activated kinase 1 (TAK1) and mitogen-activated protein kinase kinase kinase kinase 2 (MAP4K2)” (J Med Chem, 2015).
# The source made the active and inactive calls. The rule behind the calls is not given here.
# Key:
# [1] = molecular target: Calcium/calmodulin-dependent protein kinase type II subunit delta (Homo sapiens) (UniProt Q13557); assay: Inhibition of CAMK2d K1 labeling site harbouring IPTGQEYAAKIINTKK in human Huh-7 cells at 1 uM by KiNativ Profiling analysis relative to control; assay type: cell-based
# [2] = system: eIF-2-alpha kinase GCN2 (Homo sapiens), Q9P2K8 [S808G]; assay: Inhibition of GCN2 kinase domain S808G mutant (unknown origin) at 10 uM by Ambit Kinomescan binding assay
# [3] = molecular target: Ribosomal protein S6 kinase alpha-6 (Homo sapiens) (UniProt Q9UK32); assay: Inhibition of C-terminal RPS6KA6 kinase domain 2 (unknown origin) at 10 uM by Ambit Kinomescan binding assay
# [4] = molecular target: T1, Atrial natriuretic peptide receptor 2 (Homo sapiens) (UniProt P20594); assay: Inhibition of ANPb Lys2 labeling site in human A-375 cells at 0.5 uM by KiNativ Profiling analysis relative to control; assay type: cell-based
# T1 sequence (whole entry): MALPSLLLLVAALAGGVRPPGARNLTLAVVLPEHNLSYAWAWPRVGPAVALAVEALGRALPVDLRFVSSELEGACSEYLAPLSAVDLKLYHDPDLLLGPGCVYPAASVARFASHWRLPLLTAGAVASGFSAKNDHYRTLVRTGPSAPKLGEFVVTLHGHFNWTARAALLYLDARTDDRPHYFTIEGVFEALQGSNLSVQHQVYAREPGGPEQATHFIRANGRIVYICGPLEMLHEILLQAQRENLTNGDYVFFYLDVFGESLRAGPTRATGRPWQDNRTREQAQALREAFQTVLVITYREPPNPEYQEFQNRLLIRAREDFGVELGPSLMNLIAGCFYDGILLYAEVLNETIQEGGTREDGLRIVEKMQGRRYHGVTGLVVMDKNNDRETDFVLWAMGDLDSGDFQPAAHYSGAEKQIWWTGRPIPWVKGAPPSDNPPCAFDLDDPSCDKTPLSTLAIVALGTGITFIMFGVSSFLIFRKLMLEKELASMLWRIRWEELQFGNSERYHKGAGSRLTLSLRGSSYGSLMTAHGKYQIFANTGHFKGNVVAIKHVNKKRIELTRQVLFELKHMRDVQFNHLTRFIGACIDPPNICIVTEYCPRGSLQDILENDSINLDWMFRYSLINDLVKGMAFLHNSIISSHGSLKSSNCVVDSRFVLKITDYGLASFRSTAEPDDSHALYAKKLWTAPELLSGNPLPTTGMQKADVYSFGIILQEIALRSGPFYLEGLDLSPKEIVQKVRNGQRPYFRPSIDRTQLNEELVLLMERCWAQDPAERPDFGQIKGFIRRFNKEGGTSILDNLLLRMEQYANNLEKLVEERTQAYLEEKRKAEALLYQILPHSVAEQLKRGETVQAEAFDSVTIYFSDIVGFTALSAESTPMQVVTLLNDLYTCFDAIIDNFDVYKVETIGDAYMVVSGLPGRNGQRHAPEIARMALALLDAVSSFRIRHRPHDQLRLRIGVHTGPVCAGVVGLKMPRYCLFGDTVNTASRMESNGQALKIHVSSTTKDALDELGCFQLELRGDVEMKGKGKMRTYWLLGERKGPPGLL
# [5] = system: Proto-oncogene tyrosine-protein kinase receptor Ret (Homo sapiens), P07949 [V804L]; assay: Inhibition of RET V804L mutant (unknown origin) at 10 uM by Ambit Kinomescan binding assay relative to control; values are per cent of control
# [6] = molecular target: Microtubule-associated serine/threonine-protein kinase 3 (Homo sapiens) (UniProt O60307); assay: Inhibition of MAST3 Lys2 labeling site in human A-375 cells at 0.05 uM by KiNativ Profiling analysis relative to control; assay type: cell-based
# [7] = molecular target: T2, Mitogen-activated protein kinase kinase kinase 2 (Homo sapiens) (UniProt Q9Y2U5); assay: Inhibition of MAP3K2 Lys1 labeling site in human Huh-7 cells at 1 uM by KiNativ Profiling analysis relative to control; assay type: cell-based
# T2 sequence (whole entry): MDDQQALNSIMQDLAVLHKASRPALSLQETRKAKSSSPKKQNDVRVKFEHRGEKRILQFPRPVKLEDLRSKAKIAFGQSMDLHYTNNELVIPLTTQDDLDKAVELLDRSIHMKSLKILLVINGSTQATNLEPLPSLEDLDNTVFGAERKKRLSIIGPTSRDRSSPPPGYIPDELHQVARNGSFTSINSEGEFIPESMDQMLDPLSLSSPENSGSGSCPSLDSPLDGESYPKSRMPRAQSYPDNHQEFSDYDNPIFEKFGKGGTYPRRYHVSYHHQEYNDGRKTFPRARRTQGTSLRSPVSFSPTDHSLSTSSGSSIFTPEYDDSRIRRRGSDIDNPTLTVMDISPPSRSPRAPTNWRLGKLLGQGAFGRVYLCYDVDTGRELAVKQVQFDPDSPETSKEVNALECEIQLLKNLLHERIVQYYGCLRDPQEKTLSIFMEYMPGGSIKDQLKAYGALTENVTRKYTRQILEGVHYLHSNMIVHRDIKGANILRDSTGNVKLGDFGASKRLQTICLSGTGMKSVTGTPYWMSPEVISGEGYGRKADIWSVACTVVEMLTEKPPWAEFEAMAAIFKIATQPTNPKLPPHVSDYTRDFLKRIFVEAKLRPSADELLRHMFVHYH
# [8] = molecular target: Cyclin-dependent kinase 13 (Homo sapiens) (UniProt Q14004); assay: Inhibition of CHED Lys2 labeling site harbouring DIKCSNILLNNR in human Huh-7 cells at 1 uM by KiNativ Profiling analysis relative to control; assay type: cell-based
# [9] = molecular target: Putative phosphatidylinositol 4-kinase alpha-like protein P2 (Homo sapiens) (UniProt A4QPH2); assay: Inhibition of PI4KAP2 ATP labeling site in human A-375 cells at 0.05 uM by KiNativ Profiling analysis relative to control; assay type: cell-based
# [10] = system: Epidermal growth factor receptor (Homo sapiens), P00533 [G719C]; assay: Inhibition of EGFR G719C mutant (unknown origin) at 1 uM by Ambit Kinomescan binding assay relative to control
# [11] = molecular target: Serine/threonine-protein kinase RIO2 (Homo sapiens) (UniProt Q9BVS4); assay: Inhibition of RIOK2 (unknown origin) at 1 uM by Ambit Kinomescan binding assay relative to control
# [12] = molecular target: Dual specificity tyrosine-phosphorylation-regulated kinase 1A (Homo sapiens) (UniProt Q13627); assay: Inhibition of DYRK1A (unknown origin) at 1 uM by Ambit Kinomescan binding assay relative to control; values are per cent of control
# [13] = molecular target: Eukaryotic translation initiation factor 2-alpha kinase 1 (Homo sapiens) (UniProt Q9BQI3); assay: Inhibition of EIF2AK1 (unknown origin) at 1 uM by Ambit Kinomescan binding assay relative to control; values are per cent of control
# [14] = molecular target: Serine/threonine-protein kinase B-raf (Homo sapiens, UniProt P15056); assay: Inhibition of BRAF Lys2 labeling site in human A-375 cells at 0.05 uM by KiNativ Profiling analysis relative to control; assay type: cell-based
# Sequence of Serine/threonine-protein kinase B-raf (P15056 whole entry): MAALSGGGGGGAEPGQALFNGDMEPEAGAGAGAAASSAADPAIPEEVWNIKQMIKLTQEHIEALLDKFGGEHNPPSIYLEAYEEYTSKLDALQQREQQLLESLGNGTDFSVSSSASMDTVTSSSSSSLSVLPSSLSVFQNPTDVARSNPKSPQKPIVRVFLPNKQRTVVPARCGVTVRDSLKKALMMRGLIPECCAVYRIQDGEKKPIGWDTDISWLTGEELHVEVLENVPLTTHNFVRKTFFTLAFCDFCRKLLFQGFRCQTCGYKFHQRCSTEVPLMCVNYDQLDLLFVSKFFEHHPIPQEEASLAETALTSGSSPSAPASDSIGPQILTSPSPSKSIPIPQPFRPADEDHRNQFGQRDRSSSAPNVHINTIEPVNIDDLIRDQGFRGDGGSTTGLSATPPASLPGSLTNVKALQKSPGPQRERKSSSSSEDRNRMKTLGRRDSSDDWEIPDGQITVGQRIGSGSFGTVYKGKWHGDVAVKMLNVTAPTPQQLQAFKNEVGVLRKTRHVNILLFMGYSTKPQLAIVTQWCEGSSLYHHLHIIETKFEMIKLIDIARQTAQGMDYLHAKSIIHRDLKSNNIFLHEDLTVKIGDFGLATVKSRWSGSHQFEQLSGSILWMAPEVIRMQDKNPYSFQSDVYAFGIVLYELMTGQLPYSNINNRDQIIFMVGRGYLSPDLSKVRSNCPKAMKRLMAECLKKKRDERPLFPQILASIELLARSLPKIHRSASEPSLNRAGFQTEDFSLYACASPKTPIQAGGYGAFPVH
# Sequence of Epidermal growth factor receptor (Homo sapiens), P00533 [G719C] (P00533 whole entry G719C): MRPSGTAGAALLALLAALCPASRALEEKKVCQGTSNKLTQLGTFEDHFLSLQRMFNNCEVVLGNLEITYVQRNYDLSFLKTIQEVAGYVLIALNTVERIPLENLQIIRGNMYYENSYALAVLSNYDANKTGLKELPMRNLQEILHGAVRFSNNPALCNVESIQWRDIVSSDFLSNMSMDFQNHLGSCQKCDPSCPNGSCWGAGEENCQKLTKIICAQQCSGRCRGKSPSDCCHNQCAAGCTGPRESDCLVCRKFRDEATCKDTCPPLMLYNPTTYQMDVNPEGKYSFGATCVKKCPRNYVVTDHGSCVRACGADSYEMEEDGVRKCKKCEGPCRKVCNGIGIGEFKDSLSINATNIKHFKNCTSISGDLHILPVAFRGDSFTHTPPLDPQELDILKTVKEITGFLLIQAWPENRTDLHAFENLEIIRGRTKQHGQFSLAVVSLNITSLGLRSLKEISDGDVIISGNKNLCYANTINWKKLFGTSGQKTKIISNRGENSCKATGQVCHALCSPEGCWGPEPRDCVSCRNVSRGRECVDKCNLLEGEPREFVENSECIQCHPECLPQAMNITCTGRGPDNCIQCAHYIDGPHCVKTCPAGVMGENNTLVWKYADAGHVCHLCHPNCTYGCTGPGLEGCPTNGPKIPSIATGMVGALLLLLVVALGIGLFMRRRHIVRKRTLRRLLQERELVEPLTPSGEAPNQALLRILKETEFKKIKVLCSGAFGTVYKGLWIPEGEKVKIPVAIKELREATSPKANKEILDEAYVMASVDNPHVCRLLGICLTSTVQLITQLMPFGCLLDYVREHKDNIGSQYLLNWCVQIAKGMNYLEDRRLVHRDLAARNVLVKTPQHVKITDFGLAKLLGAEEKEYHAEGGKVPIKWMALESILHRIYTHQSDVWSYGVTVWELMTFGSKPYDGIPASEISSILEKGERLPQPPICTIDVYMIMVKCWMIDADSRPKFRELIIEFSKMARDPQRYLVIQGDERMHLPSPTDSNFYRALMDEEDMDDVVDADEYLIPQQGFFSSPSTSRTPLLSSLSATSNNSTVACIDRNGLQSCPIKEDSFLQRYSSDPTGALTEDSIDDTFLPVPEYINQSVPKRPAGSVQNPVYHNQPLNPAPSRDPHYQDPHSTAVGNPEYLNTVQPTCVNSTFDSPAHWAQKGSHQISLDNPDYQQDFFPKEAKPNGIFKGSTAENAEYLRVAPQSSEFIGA
# Sequence of Calcium/calmodulin-dependent protein kinase type II subunit delta (Homo sapiens) (Q13557 whole entry, the tested form may be a part): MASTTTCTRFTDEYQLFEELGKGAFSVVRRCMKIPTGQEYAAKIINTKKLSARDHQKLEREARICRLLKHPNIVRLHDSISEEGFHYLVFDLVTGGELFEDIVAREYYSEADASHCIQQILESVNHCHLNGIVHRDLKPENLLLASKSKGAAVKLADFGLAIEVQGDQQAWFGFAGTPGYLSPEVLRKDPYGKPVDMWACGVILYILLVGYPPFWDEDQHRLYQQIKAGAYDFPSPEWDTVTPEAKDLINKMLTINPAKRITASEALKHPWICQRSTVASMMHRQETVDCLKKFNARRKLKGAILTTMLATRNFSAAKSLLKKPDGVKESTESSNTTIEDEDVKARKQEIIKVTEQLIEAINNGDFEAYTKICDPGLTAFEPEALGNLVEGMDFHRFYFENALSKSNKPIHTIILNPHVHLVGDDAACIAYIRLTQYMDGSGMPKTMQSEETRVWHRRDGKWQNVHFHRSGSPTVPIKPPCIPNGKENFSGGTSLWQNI
# Sequence of Serine/threonine-protein kinase RIO2 (Homo sapiens) (Q9BVS4 whole entry, looked up): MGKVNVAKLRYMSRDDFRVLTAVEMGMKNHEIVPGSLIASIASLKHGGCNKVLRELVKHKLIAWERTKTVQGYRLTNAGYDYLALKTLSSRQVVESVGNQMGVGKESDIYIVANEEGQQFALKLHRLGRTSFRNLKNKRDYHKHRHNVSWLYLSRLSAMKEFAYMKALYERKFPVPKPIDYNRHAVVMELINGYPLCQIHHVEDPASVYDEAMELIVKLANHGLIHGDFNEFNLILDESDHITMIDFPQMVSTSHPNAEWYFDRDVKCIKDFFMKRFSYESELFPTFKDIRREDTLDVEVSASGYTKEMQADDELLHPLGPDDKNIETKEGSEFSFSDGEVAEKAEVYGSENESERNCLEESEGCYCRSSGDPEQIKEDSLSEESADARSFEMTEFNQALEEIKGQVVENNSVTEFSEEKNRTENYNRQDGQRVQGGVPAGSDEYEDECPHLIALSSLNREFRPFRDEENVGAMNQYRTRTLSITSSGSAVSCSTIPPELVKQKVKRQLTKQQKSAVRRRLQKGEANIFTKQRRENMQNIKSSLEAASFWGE
# Sequence of Ribosomal protein S6 kinase alpha-6 (Homo sapiens) (Q9UK32 whole entry, the tested form may be a part): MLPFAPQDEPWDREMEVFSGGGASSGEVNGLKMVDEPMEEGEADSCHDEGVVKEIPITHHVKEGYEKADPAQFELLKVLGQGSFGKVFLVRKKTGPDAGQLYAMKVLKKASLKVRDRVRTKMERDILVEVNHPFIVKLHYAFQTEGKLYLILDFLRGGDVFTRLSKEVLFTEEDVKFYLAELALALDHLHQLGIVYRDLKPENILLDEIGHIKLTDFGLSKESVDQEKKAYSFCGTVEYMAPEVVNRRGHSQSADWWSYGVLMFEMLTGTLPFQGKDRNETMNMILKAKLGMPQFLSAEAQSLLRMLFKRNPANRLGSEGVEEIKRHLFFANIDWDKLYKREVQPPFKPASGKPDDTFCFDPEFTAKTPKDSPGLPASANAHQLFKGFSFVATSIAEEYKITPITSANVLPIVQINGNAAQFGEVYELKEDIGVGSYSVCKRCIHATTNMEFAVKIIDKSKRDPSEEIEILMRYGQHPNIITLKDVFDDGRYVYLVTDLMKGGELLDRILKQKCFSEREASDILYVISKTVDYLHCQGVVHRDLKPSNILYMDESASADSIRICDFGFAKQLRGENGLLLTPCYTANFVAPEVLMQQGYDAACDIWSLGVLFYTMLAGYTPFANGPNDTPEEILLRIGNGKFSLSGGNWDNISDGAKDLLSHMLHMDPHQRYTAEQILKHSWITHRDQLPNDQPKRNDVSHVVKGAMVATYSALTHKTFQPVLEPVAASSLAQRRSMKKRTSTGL
# Sequence of Putative phosphatidylinositol 4-kinase alpha-like protein P2 (Homo sapiens) (A4QPH2 whole entry): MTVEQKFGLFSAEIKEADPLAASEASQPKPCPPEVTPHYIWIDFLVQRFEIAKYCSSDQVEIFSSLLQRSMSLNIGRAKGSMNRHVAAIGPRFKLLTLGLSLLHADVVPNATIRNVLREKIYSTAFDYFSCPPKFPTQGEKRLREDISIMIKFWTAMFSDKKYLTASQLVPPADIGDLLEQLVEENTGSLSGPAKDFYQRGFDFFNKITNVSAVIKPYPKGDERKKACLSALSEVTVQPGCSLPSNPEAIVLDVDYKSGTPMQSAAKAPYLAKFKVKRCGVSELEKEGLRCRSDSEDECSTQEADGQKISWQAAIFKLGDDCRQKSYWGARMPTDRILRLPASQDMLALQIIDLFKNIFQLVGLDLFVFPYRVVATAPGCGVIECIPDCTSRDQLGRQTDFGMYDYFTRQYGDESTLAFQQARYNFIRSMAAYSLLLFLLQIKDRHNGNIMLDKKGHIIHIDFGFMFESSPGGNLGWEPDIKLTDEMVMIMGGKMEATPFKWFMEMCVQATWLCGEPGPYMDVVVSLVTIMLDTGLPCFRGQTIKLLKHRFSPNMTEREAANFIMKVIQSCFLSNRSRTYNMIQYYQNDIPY
# Sequence of Eukaryotic translation initiation factor 2-alpha kinase 1 (Homo sapiens) (Q9BQI3 whole entry): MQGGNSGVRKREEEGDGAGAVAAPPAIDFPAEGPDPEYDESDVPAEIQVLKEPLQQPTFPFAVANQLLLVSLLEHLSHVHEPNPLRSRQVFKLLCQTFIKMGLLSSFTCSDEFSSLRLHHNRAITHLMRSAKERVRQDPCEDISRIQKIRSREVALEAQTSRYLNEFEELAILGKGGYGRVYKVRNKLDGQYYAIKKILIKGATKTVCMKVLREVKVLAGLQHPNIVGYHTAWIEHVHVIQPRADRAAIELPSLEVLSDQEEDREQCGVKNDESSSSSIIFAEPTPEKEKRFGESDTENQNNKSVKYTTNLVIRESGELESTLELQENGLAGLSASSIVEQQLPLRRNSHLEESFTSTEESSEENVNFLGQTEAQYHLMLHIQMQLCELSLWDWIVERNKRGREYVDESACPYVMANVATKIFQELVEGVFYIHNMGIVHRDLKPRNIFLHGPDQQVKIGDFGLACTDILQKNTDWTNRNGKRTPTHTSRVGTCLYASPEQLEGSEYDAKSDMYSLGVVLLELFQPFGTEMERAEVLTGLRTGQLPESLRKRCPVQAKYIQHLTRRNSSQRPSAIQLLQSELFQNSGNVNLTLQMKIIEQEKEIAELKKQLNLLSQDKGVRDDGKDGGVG
compound,measurement,setting,value
CCN1CCN(Cc2ccc(NC(=O)c3ccc(C)c(Oc4ccnc5[nH]ccc45)c3)cc2C(F)(F)F)CC1,inhibition,[1],4.4%
same,inhibition,[2],inactive
same,inhibition,[3],inactive
same,inhibition,[4],-9.4%
same,residual activity,[5],0.8%
same,inhibition,[6],-3.3%
CNc1cc(Oc2cc(C(=O)Nc3cc(N4CCN(C)CC4)cc(C(F)(F)F)c3)ccc2C)ncn1,inhibition,[7],28.2%
same,inhibition,[8],38.1%
CCN1CCN(Cc2ccc(NC(=O)c3ccc(C)c(/C=C/c4cnc5[nH]ccc5c4OC)c3)cc2C(F)(F)F)CC1,inhibition,[9],0.8%
same,inhibition,[10],0.45%
same,inhibition,[11],61%
same,residual activity,[12],100%
same,residual activity,[13],100%
same,inhibition,[14],29.6%
